Like-named read-outs stand apart in the source and are kept apart here.
Key:
ARPE19 cells = assay: Staining of dead cells and/or living cells: dye content in ARPE19 cells by spectrophotometry; format: cell-based, human; conditions: 15 minutes staining; for Adead (maximum absorbance for dead cells): ARPE19 cells fixed with 70% ethanol 5 minutes; for Aliving (maximum absorbance for living cells): living ARPE19 cells
ARPE-19 cells [1] = assay: Toxicity: survival of cells after exposure to dyes; format: cell-based; conditions: for Survival of ARPE-19 cells: 0.1% in PBS for 15 minutes at 37° C.
Description: A preferred dye, being either a compound according to the invention or an additional dye as defined above, has a good staining ability for dead cells, a minimal cellular toxicity in the dark, and a minimal cellular toxicity in the strong illumination necessary for surgery.
According to a preferred definition, a low toxicity means that at least 60%, 65%, 70%, 75%, 80%, 85%, 90% or 95% cell viability is retained after incubation in PBS for 15 minutes at 37° C. and 5% CO2, as determined using the methodology of Example 6.

[2] = Staining ability on PVDF filter as ILM model; conditions: for Ability to stain the ILM (comparative statement): PVDF filter as model for the ILM; for Mean intensity of the grey values of stained filter: 30 s contact, scale 255 is white and 0 is black
Text: Correlation between staining of the filter and observed staining of the ILM in patients (data from (Rodrigues, Penha et al. 2010)) show a good correlation (see FIG. 1). A 96-well filter (MSBVN1210 MultiScreen BV Filter Plate, Merck-Millipore, Darmstadt, Germany) was used as ILM model. The filter material is hydrophilic polyvinylidene difluoride (PVDF). A Collagen Cell Carrier membrane (CCC) (Viscofan, Weinheim, Germany) was used as model for the ERM. Punches of the membrane (5 mm diameter) were fixed to the filter with a hypodermic needle and soaked in PBS for 30 minutes. The PBS was removed by vacuum filtration, and 50 μL of the dye solution was pipetted into the filter well. After 30 s, the dye was removed by vacuum filtration, and membrane and filter were washed three times with PBS. The membrane was removed and put into a 96-well plate for spectrum recording, using a Tecan Spark 20M (Tecan Group Ltd., Männedorf, Switzerland) plate reader. The filter staining of the compounds (6) and (8) according to the invention are shown in FIG. 2 in comparison to that of BBG. […] The intensity of the grey values was measured. For BBG the mean intensity was 201, for compound (6) it was 175, for compound (8) it was 197. On the scale used, 255 is white and 0 is black.

ARPE-19 cells [3] = assay: Three-step staining (dye, calcein-AM, propidium iodide) with microphotographs; format: cell-based, human; conditions: 0.025% in PBS, room temperature, 15 minutes; 20% ethanol 5 minutes to induce death in some cells; FIG. 3
Description: An experiment was carried out with ARPE-19 cells and staining with compound (6).
A three-step staining procedure was used: first the dye was introduced, then calcein-acetoxymethyl ester (calcein-AM), then propidium iodide (PI). Calcein-AM (which is non-fluorescent) is able to penetrate cell membranes and is hydrolyzed by intracellular esterases to calcein, which is fluorescent and which cannot escape through the intact cell membrane. Cells fluorescent for calcein-AM are therefore intact and living cells. Dead cells (cells with a compromised cell membrane) might still hydrolyze calcein-AM, but they are not able to retain the calcein. Cells with compromised cell membranes can take up propidium iodide, a dye which intercalates into DNA and turns fluorescent upon binding.
Cells were grown in 48-well plates. Growth medium was removed and a solution of 20% ethanol was added for 5 minutes in order to induce cell death in some cells. The ethanol solutions were removed. Staining with compound (6) (0.025%) in PBS was carried out at room temperature for 15 minutes. The dye was washed off with PBS. The cells were then exposed to calcein-acetoxymethyl ester (calcein-AM) in PBS for 15 minutes at room temperature. […]

[4] = dye 0.1% w/v in PBS, <0.07 = does not stain
[5] = concentration of the dye 0.025%

Molecule | Adead (maximum absorbance for dead cells) (ARPE19 cells; dye 0.1% w/v in PBS) | Aliving (maximum absorbance for living cells) (ARPE19 cells; [4]) | also measured
CC1=CC(=[N+](C)Cc2cccc(S(=O)(=O)[O-])c2)C=CC1=C(c1ccc(Nc2ccc(OC(C)C)cc2)cc1)c1ccc(N(C)Cc2cccc(S(=O)(=O)O)c2)cc1C [(1)] | 0.3481 | 0.0283 | 
CC1=CC(=[N+](C)Cc2cccc(S(=O)(=O)[O-])c2)C=CC1=C(c1ccc(Nc2ccc(OCc3ccccc3)cc2)cc1)c1ccc(N(C)Cc2cccc(S(=O)(=O)O)c2)cc1C [(2)] | 0.2454 | 0.0253 | 
CCN(Cc1cccc(S(=O)(=O)O)c1)c1ccc(C(=C2C=CC(=[N+](CC)Cc3cccc(S(=O)(=O)[O-])c3)C=C2C)c2ccc(Nc3ccc(OC(C)C)cc3)cc2)c(C)c1 [(3)] | 0.6387 | 0.0440 | 
CCCOc1ccc(Nc2ccc(C(=C3C=CC(=[N+](CC)Cc4cccc(S(=O)(=O)[O-])c4)C=C3C)c3ccc(N(CC)Cc4cccc(S(=O)(=O)O)c4)cc3C)cc2)cc1 [(4)] | 0.8084 | 0.0485 | 
CCN(Cc1cccc(S(=O)(=O)O)c1)c1ccc(C(=C2C=CC(=[N+](CC)Cc3cccc(S(=O)(=O)[O-])c3)C=C2C)c2ccc(Nc3ccc(OCc4ccccc4)cc3)cc2)c(C)c1 [(5)] | 0.6734 | 0.0327 | Survival of ARPE-19 cells (ARPE-19 cells [1]): 81%; Survival (ARPE-19 cells [1]; dye concentration 0.025%): 81%
CCN(Cc1cccc(S(=O)(=O)O)c1)c1ccc(C(=C2C=CC(=[N+](CC)Cc3cccc(S(=O)(=O)[O-])c3)C=C2C)c2ccc(Nc3ccc(Oc4ccccc4)cc3)cc2)c(C)c1 [(7)] |  |  | Adead (maximum absorbance for dead cells) (ARPE19 cells; [5]): 0.1976; Aliving (maximum absorbance for living cells) (ARPE19 cells; [5]): 0.0216; Survival of ARPE-19 cells (ARPE-19 cells [1]): 81%; Survival (ARPE-19 cells [1]; dye concentration 0.025%): 81%
CCN(Cc1cccc(S(=O)(=O)O)c1)c1ccc(C(=C2C=CC(=[N+](CC)Cc3cccc(S(=O)(=O)[O-])c3)C=C2C)c2ccc(Nc3ccc(Nc4ccccc4)cc3)cc2)c(C)c1 [(8)] | 0.8411 | 0.0629 | Survival of ARPE-19 cells (ARPE-19 cells [1]): 79%; Survival (ARPE-19 cells [1]; dye concentration 0.025%): 79%; Ability to stain the ILM (comparative statement) [2]: increased ability to stain the ILM compared to compound (6); Mean intensity of the grey values of stained filter ([2]; dye 0.005%): 197; Filter staining in comparison to BBG and compound (6) ([2]; dye at 0.005%, comparators at 0.025%, FIG. 2): even stronger staining
CCCCN(c1ccc(OCC)cc1)c1ccc(C(=C2C=CC(=[N+](CC)Cc3cccc(S(=O)(=O)[O-])c3)C=C2C)c2ccc(N(CC)Cc3cccc(S(=O)(=O)O)c3)cc2C)cc1 [BBBG] | 0.7941 | 0.1491 | Survival (ARPE-19 cells [1]; dye concentration 0.005%): 67%
CCOc1ccc(Nc2ccc(/C(=C3C=C/C(=[N+](/CC)Cc4cccc(S(=O)(=O)[O-])c4)C=C/3C)c3ccc(N(CC)Cc4cccc(S(=O)(=O)[O-])c4)cc3C)cc2)cc1.[Na+] [BBG, Brilliant Blue G] | 0.5651 | 0.0328 | Survival (ARPE-19 cells [1]): 99%; Mean intensity of the grey values of stained filter ([2]; dye 0.025%): 201
CCN(CC)c1ccc(C(=C2C=CC(=[N+](CC)CC)C=C2)c2ccccc2)cc1 [Brilliant Green] | 0.0568 | 0.1088 | 
O=S1(=O)OC(c2cc(Br)c(O)c(Br)c2)(c2cc(Br)c(O)c(Br)c2)c2ccccc21 [Bromophenol Blue] | 0.0357 | 0.0059 | 
CCN(Cc1cccc(S(=O)(=O)O)c1)c1ccc(C(=C2C=CC(=[N+](CC)Cc3cccc(S(=O)(=O)[O-])c3)C=C2C)c2ccc(Nc3ccc(OC)cc3)cc2)c(C)c1 [Compound (6)] | 0.8755 | 0.0603 | Adead (maximum absorbance for dead cells) (ARPE19 cells; [5]): 0.3630; Aliving (maximum absorbance for living cells) (ARPE19 cells; [5]): 0.0635; Staining of living cells (microscopy) (ARPE-19 cells [3]): does not stain living cells; Survival of ARPE-19 cells (ARPE-19 cells [1]): 103%; Survival (ARPE-19 cells [1]; dye concentration 0.025%): 103%; Ability to stain the ILM (comparative statement) [2]: increased ability to stain the ILM compared to BBG; Mean intensity of the grey values of stained filter ([2]; dye 0.025%): 175; Filter staining in comparison to BBG ([2]; equal concentrations of 0.025%, FIG. 2): Much stronger staining
CN(C)c1ccc(C(=C2C=CC(=[N+](C)C)C=C2)c2ccc(N(C)C)cc2)cc1 [Crystal Violet] | 0.4365 |  | 
CCOc1ccc(N(CC)c2ccc(C(=C3C=CC(=[N+](CC)Cc4cccc(S(=O)(=O)[O-])c4)C=C3C)c3ccc(N(CC)Cc4cccc(S(=O)(=O)O)c4)cc3C)cc2)cc1 [EBBG] | 0.9066 | 0.0724 | Survival (ARPE-19 cells [1]; dye concentration 0.025%): 93%
O=C1OC2(c3ccccc31)c1cc(Br)c(O)c(Br)c1Oc1c2cc(Br)c(O)c1Br [Eosin] | 0.2358 | 0.0362 | 
CC1(C)C(/C=C/C=C/C=C/C=C2\N(CCCCS(=O)(=O)O)c3ccc4ccccc4c3C2(C)C)=[N+](CCCCS(=O)(=O)[O-])c2ccc3ccccc3c21 [ICG, indocyanine green] | 1.1751 | 0.0703 | 
CCN(Cc1cccc(S(=O)(=O)O)c1)c1ccc(C(=C2C=CC(=[N+](CC)Cc3cccc(S(=O)(=O)O)c3)C=C2)c2ccc(S(=O)(=O)O)cc2)cc1.[Na+].[Na+] [Light Green SF] | 0.0080 | 0.0065 | 
CCOc1ccc(N(C)c2ccc(C(=C3C=CC(=[N+](CC)Cc4cccc(S(=O)(=O)[O-])c4)C=C3C)c3ccc(N(CC)Cc4cccc(S(=O)(=O)O)c4)cc3C)cc2)cc1 [MBBG] | 0.6876 | 0.0355 | 
CN(C)c1ccc(C(=C2C=CC(=[N+](C)C)C=C2)c2ccccc2)cc1 [Malachite Green] | 0.0068 | 0.0058 | 
CN(C)c1ccc(C(=C2C=CC(=[N+](C)C)C=C2)c2ccc([N+](C)(C)C)cc2)cc1.[Cl-].[Cl-] [Methyl Green] | 0.0750 | 0.0489 | 
CCCN(c1ccc(OCC)cc1)c1ccc(C(=C2C=CC(=[N+](CC)Cc3cccc(S(=O)(=O)[O-])c3)C=C2C)c2ccc(N(CC)Cc3cccc(S(=O)(=O)O)c3)cc2C)cc1 [PBBG] | 0.7369 | 0.1331 | Survival (ARPE-19 cells [1]; dye concentration 0.005%): 66%
Cc1cc(-c2ccc(/N=N/c3c(S(=O)(=O)O)cc4cc(S(=O)(=O)O)cc(N)c4c3O)c(C)c2)ccc1/N=N/c1c(S(=O)(=O)O)cc2cc(S(=O)(=O)O)cc(N)c2c1O [Trypan Blue] | 0.0847 | 0.0135 | 
Acid Violet | 0.2077 | 0.0184 | 
Aniline Blue | 0.0057 | 0.0080 | 
Methyl Violet | 0.8900 |  | 
Patent Blue 1 | 0.0113 | 0.0155 | 
